{"source": "patent US7977308B2", "about": "“Lys-Thr dipeptides and their use” (Sederma, priority 2005, dated 2011)", "type_in_all_cases": "cell-based", "key": {"[1]": {"test_system": "Normal Human Dermal Fibroblasts (NHDF)", "assay": "Survival estimated on cell layer using fluorescent probe Hoescht 33258", "conditions": "for cell proliferation / number of cells: after 3 days of culture", "description": "(§1) Normal Human Dermal Fibroblasts (NHDF) were cultivated in culture plates in an appropriate culture medium (i.e. complete DMEM with fetal calf serum). After cell anchorage, cell layers (n=5 replicates) were rinsed with saline buffer and contact with molecules to be tested were performed in a complete DMEM without fetal calf serum. This medium contained ascorbate (sodium salt) and beta-aminopropionitrile, monofumarate. Two independent experimentations were performed for each di-peptide.\n(§2) After 3 days of incubation, supernatants were collected and frozen. Survival was estimated on cell layer using the fluorescent probe Hoescht 33258. Collagen I was estimated using an original direct ELISA method. Fibronectin was estimated using ELISA commercial kit."}, "[2]": {"test_system": "Normal Human Dermal Fibroblasts (NHDF)", "assay": "Quantification of Collagen I synthesis using human dermal fibroblasts (direct ELISA)", "conditions": "3 days of incubation", "description": "(§3) Products were tested from 0.5 to 4 ppm depending of their solubility or toxicity. Pal-KTTKS was tested from 2 to 8 ppm.\n(§4) Pal KTTKS (Lys-Thr-Thr-Lys-Ser), Pal KT (Lys-Thr), Pal KS (Lys-Ser) were prepared in Sederma Peptide Synthesis Laboratory. TGF-betal: 10^E-6%, was the positive control for collagen I and Fibronectin studies.\n(§5) For this study, di-peptides were linked to the Palmitoic acid and were compared to Pal-KTTKS.\nas §1, §2\n(§6) Criteria: TGF-b1 should be promoter of Collagen I and Fibronectin synthesis. Statistical analysis were performed on Collagen I data (n=5/assay) or Fibronectin data (n=5/assay). Results obtained with molecules were compared to negative control. All data were ng/10^E6 cells. A Student t test for non paired values was used; significativity was obtained if p<0.05 or p<0.01.\n(§7) The percents in the tables above were calculated from ng/10E6 data and compared to the negative control."}, "[3]": {"test_system": "Normal Human Dermal Fibroblasts (NHDF)", "assay": "Quantification of Fibronectin synthesis using human dermal fibroblasts (ELISA commercial kit)", "conditions": "3 days of incubation", "description": "as §3, §4, §5, §1, §2, §6, §7"}}, "note": "Where no end group is shown, it is not given here. The star is where a group is joined. Palmitoyl = CCCCCCCCCCCCCCCC(=O)*"}
{"compound": "CCCCCCCCCCCCCCCC(=O)N[C@@H](CCCCN)C(=O)N[C@@H](CO)C(=O)O", "note": "[Pal KS]", "values": [{"measurement": "toxicity on the cell layer", "setting": "[1]; 4 ppm", "value": "seemed to induce a light toxicity"}]}
{"compound": "Pal KTTKS: Palmitoyl Lys-Thr-Thr-Lys-Ser, considered as a benchmark (Palmitoyl-KTTKS)", "values": [{"measurement": "cell proliferation / number of cells", "setting": "[1]", "value": "unchanged"}, {"measurement": "COLLAGEN I Mean, percent of negative control", "setting": "[2]; 2 ppm", "value": "+5%"}, {"measurement": "COLLAGEN I Mean, percent of negative control", "setting": "[2]; 4 ppm", "value": "+49%"}, {"measurement": "COLLAGEN I Mean, percent of negative control", "setting": "[2]; 4 ppm, listed as Pal-KTTKS", "value": "+49%"}, {"measurement": "COLLAGEN I Mean, percent of negative control", "setting": "[2]; 6 ppm", "value": "+111%"}, {"measurement": "COLLAGEN I Mean, percent of negative control", "setting": "[2]; 6 ppm, listed as Pal-KTTKS", "value": "+111%"}, {"measurement": "COLLAGEN I Mean, percent of negative control", "setting": "[2]; 8 ppm", "value": "+144%"}, {"measurement": "COLLAGEN I Mean, percent of negative control", "setting": "[2]; 8 ppm, listed as Pal-KTTKS", "value": "+144%"}, {"measurement": "FIBRONECTIN Mean, percent of negative control", "setting": "[3]; 2 ppm", "value": "+20%"}, {"measurement": "FIBRONECTIN Mean, percent of negative control", "setting": "[3]; 2 ppm, listed as Pal KTRKS", "value": "probably active"}]}
{"compound": "Pal-Lys-Thr-OH [Pal KT]", "values": [{"measurement": "COLLAGEN I Mean, percent of negative control", "setting": "[2]; 1 ppm", "value": "+21%"}]}
{"compound": "TGF-beta: positive control for collagen I and Fibronectin studies", "values": [{"measurement": "cell proliferation / number of cells", "setting": "[1]", "value": "significant increase of cell proliferation"}, {"measurement": "COLLAGEN I Mean, percent of negative control", "setting": "[2]; 10 ppb", "value": "+95%"}, {"measurement": "COLLAGEN I Mean, percent of negative control", "setting": "[2]; 10 ppb, listed as TGF-b1", "value": 95, "unit": "%"}, {"measurement": "FIBRONECTIN Mean, percent of negative control", "setting": "[3]; 10 ppb", "value": "+69%"}, {"measurement": "FIBRONECTIN Mean, percent of negative control", "setting": "[3]; 10 ppb, listed as TGF-b1", "value": 69, "unit": "%"}]}
